Marks after values point to notes of the source that are not given here.
Columns and labels:
[1] = tested on: marine birnavirus (MABV); assay: Change of virus infection value (TCID50) in culture cells; format: cell-based; conditions: for Infection value by MABV: 8 mM
Description: In this experiment, change of infection value by virus according to δ-aminolevulinic acid treatment was examined by TCID50 using fish cell line for marine birnavirus (MABV) which infects major marine cultivating fish species, Bastardhalibut, Pagrus major and Sebastes schlegeli and acts as a cause for mass mortality. The virus used in this experiment was isolated from Bastardhalibut of a fish farm nearby Yeosu. Virus infection value was checked in CHSE-214 cell and then used as experimental virus solution. Virus incubation solution and δ-aminolevulinic acid diluted solution were combined with same amount (8 mL) and reacted for 30 min. and then, inoculated to culture cell and incubated at 20° C. Temporary change of virus infection value was compared with that of HBSS reaction virus solution (control).

[2] = tested on: Edwardsiella tarda; assay: Prevention effect for artificial infection (abdominal injection of bacteria); format: in vivo, Bastardhalibut; conditions: for Mortality during Cultivation: dead of 20 fish
Description: (§1) The water temperature was maintained at 20° C. (±2° C. ) throughout the experiment.
(§2) As the same method of above Experiment 1, fishes of both control group and experiment group were prepared and artificially infected by direct abdominal injection of Edwardsiella tarda 10^5 CFU per 1 fish. Each experimental fish was moved to fish tanks for monitoring and monitored for mortality according to infection for 2 weeks and viability after 2 weeks.

[3] = tested on: Edwardsiella tarda; assay: as above; format: in vivo, Sebastes schlegeli; conditions: for Mortality during Cultivation: dead of 20 fish
Description: as §1, §2

[4] = tested on: Streptococcus sp.; assay: as above; format: in vivo, Bastardhalibut; conditions: for Mortality during Cultivation: dead of 20 fish
Description: as §1, §2
Bastardhalibut and Sebastes schlegeli were infected by Streptococcus sp. by abdominal injection with the same method of fish breeding, δ-aminolevulinic acid treatment and artificial infection carried out in Experiment 1 and 2. Each experimental fish was moved to fish tanks for monitoring and monitored for mortality according to infection for 2 weeks. […] The treated group, with δ-aminolevulinic acid by tank administration method and oral administration method, has shown viability of higher than 65%.

[5] = tested on: Staphylococcus sp.; assay: as above; format: in vivo, Bastardhalibut; conditions: for Mortality during Cultivation: dead of 20 fish
Description: The water temperature was maintained at 20° C. (±2° C. ) throughout the experiment. […]
Bastardhalibut and Sebastes schlegeli were infected by Staphylococcus sp. by abdominal injection with the same method of fish breeding δ-aminolevulinic acid treatment and artificial infection carried out in Experiment 1 and 2. Each experimental fish was moved to fish tanks for monitoring and monitored for mortality according to infection for 2 weeks.

[6] = tested on: White Spot Syndrome Virus (WSSV); assay: Treatment for WSSV infected shrimp; format: in vivo, Penaeus Chinesis
Description: In this experiment, after injection of the viral homogenate aforementioned in EXPERIMENT 1, treatment group was immersed respectively in 0.01˜10 ppm of ALA for 1.5 hour for 3 days.

NCC(=O)CCC(=O)O [δ-aminolevulinic acid]
Infection value by MABV ([1]; 0 days after inoculation): 4.3* Log TCID50/mL
Infection value by MABV ([1]; 1 day after inoculation): 3.8 Log TCID50/mL
Infection value by MABV ([1]; 3 days after inoculation): 3.5 Log TCID50/mL
Infection value by MABV ([1]; 5 days after inoculation): 2.3 Log TCID50/mL
Infection value by MABV ([1]; 7 days after inoculation): <1.8 Log TCID50/mL
effect on MABV within culture cell system ([1]; reacted 30 min before inoculation): inactivated
Viability ([2]; orally, 0.01 ppm in feed): 75%
Mortality during Cultivation ([2]; orally, 0.01 ppm in feed): 5
Viability ([2]; orally, 1.0 ppm in feed): 70%
Mortality during Cultivation ([2]; orally, 1.0 ppm in feed): 6
Viability ([2]; orally, 10 ppm in feed): 85%
Mortality during Cultivation ([2]; orally, 10 ppm in feed): 3
Viability ([2]; orally, 100 ppm in feed): 95%
Mortality during Cultivation ([2]; orally, 100 ppm in feed): 1
Viability ([2]; to fish tanks, 0.01 ppm): 65%
Mortality during Cultivation ([2]; to fish tanks, 0.01 ppm): 7
Viability ([2]; to fish tanks, 0.1 ppm): 75%
Mortality during Cultivation ([2]; to fish tanks, 0.1 ppm): 5
Viability ([2]; to fish tanks, 1.0 ppm): 85%
Mortality during Cultivation ([2]; to fish tanks, 1.0 ppm): 3
Viability ([2]; to fish tanks, 10 ppm): 90%
Mortality during Cultivation ([2]; to fish tanks, 10 ppm): 2
Viability ([3]; orally, 0.01 ppm in feed): 70%
Mortality during Cultivation ([3]; orally, 0.01 ppm in feed): 6
Viability ([3]; orally, 1.0 ppm in feed): 80%
Mortality during Cultivation ([3]; orally, 1.0 ppm in feed): 4
Viability ([3]; orally, 10 ppm in feed): 85%
Mortality during Cultivation ([3]; orally, 10 ppm in feed): 3
Viability ([3]; orally, 100 ppm in feed): 90%
Mortality during Cultivation ([3]; orally, 100 ppm in feed): 2
Viability ([3]; to fish tanks, 0.01 ppm): 65%
Mortality during Cultivation ([3]; to fish tanks, 0.01 ppm): 7
Viability ([3]; to fish tanks, 0.1 ppm): 75%
Mortality during Cultivation ([3]; to fish tanks, 0.1 ppm): 5
Viability ([3]; to fish tanks, 1.0 ppm): 90%
Mortality during Cultivation ([3]; to fish tanks, 1.0 ppm): 2
Viability ([3]; to fish tanks, 10 ppm): 85%
Mortality during Cultivation ([3]; to fish tanks, 10 ppm): 3
Viability ([4]; orally, 0.1 ppm in feed): 65%
Mortality during Cultivation ([4]; orally, 0.1 ppm in feed): 7
Viability ([4]; orally, 1.0 ppm in feed): 65%
Mortality during Cultivation ([4]; orally, 1.0 ppm in feed): 7
Viability ([4]; orally, 10 ppm in feed): 80%
Mortality during Cultivation ([4]; orally, 10 ppm in feed): 4
Viability ([4]; orally, 100 ppm in feed): 85%
Mortality during Cultivation ([4]; orally, 100 ppm in feed): 3
Viability ([4]; to fish tanks, 0.01 ppm): 60%
Mortality during Cultivation ([4]; to fish tanks, 0.01 ppm): 8
Viability ([4]; to fish tanks, 0.1 ppm): 65%
Mortality during Cultivation ([4]; to fish tanks, 0.1 ppm): 7
Viability ([4]; to fish tanks, 1.0 ppm): 75%
Mortality during Cultivation ([4]; to fish tanks, 1.0 ppm): 5
Viability ([4]; to fish tanks, 10 ppm): 85%
Mortality during Cultivation ([4]; to fish tanks, 10 ppm): 3
Viability ([5]; orally, 0.1 ppm in feed): 55%
Mortality during Cultivation ([5]; orally, 0.1 ppm in feed): 9
Viability ([5]; orally, 1.0 ppm in feed): 65%
Mortality during Cultivation ([5]; orally, 1.0 ppm in feed): 7
Viability ([5]; orally, 10 ppm in feed): 95%
Mortality during Cultivation ([5]; orally, 10 ppm in feed): 1
Viability ([5]; orally, 100 ppm in feed): 90%
Mortality during Cultivation ([5]; orally, 100 ppm in feed): 2
Viability ([5]; to fish tanks, 0.01 ppm): 55%
Mortality during Cultivation ([5]; to fish tanks, 0.01 ppm): 9
Viability ([5]; to fish tanks, 0.1 ppm): 75%
Mortality during Cultivation ([5]; to fish tanks, 0.1 ppm): 5
Viability ([5]; to fish tanks, 1.0 ppm): 90%
Mortality during Cultivation ([5]; to fish tanks, 1.0 ppm): 2
Viability ([5]; to fish tanks, 10 ppm): 95%
Mortality during Cultivation ([5]; to fish tanks, 10 ppm): 1
Cumulative mortality ([6]; 0.01 ppm, after injection for 3 weeks): 100%
Mortality after injection for 3 weeks ([6]; 0.01 ppm, day 1, 50 shrimp): 0
Mortality after injection for 3 weeks ([6]; 0.01 ppm, day 2, 50 shrimp): 0
Mortality after injection for 3 weeks ([6]; 0.01 ppm, day 3, 50 shrimp): 15
Mortality after injection for 3 weeks ([6]; 0.01 ppm, day 4, 50 shrimp): 20
Mortality after injection for 3 weeks ([6]; 0.01 ppm, day 5, 50 shrimp): 12
Mortality after injection for 3 weeks ([6]; 0.01 ppm, day 6, 50 shrimp): 3
Cumulative mortality ([6]; 0.1 ppm, after injection for 3 weeks): 18%
Mortality after injection for 3 weeks ([6]; 0.1 ppm, day 1, 50 shrimp): 0
Mortality after injection for 3 weeks ([6]; 0.1 ppm, day 2, 50 shrimp): 0
Mortality after injection for 3 weeks ([6]; 0.1 ppm, day 3, 50 shrimp): 4
Mortality after injection for 3 weeks ([6]; 0.1 ppm, day 4, 50 shrimp): 3
Mortality after injection for 3 weeks ([6]; 0.1 ppm, day 5, 50 shrimp): 2
Mortality after injection for 3 weeks ([6]; 0.1 ppm, day 6, 50 shrimp): 0
Mortality after injection for 3 weeks ([6]; 0.1 ppm, day 7, 50 shrimp): 0
Mortality after injection for 3 weeks ([6]; 0.1 ppm, day 21, 50 shrimp): 0
Cumulative mortality ([6]; 1.0 ppm, after injection for 3 weeks): 10%
Mortality after injection for 3 weeks ([6]; 1.0 ppm, day 1, 50 shrimp): 0
Mortality after injection for 3 weeks ([6]; 1.0 ppm, day 2, 50 shrimp): 0
Mortality after injection for 3 weeks ([6]; 1.0 ppm, day 3, 50 shrimp): 3
Mortality after injection for 3 weeks ([6]; 1.0 ppm, day 4, 50 shrimp): 2
Mortality after injection for 3 weeks ([6]; 1.0 ppm, day 5, 50 shrimp): 0
Mortality after injection for 3 weeks ([6]; 1.0 ppm, day 6, 50 shrimp): 0
Mortality after injection for 3 weeks ([6]; 1.0 ppm, day 7, 50 shrimp): 0
Mortality after injection for 3 weeks ([6]; 1.0 ppm, day 21, 50 shrimp): 0
Cumulative mortality ([6]; 10 ppm, after injection for 3 weeks): 8%
Mortality after injection for 3 weeks ([6]; 10 ppm, day 1, 50 shrimp): 0
Mortality after injection for 3 weeks ([6]; 10 ppm, day 2, 50 shrimp): 0
Mortality after injection for 3 weeks ([6]; 10 ppm, day 3, 50 shrimp): 3
Mortality after injection for 3 weeks ([6]; 10 ppm, day 4, 50 shrimp): 1
Mortality after injection for 3 weeks ([6]; 10 ppm, day 5, 50 shrimp): 0
Mortality after injection for 3 weeks ([6]; 10 ppm, day 6, 50 shrimp): 0
Mortality after injection for 3 weeks ([6]; 10 ppm, day 7, 50 shrimp): 0
Mortality after injection for 3 weeks ([6]; 10 ppm, day 21, 50 shrimp): 0
Cumulative mortality ([6]; immersion 1.0 ppm, 1.5 hour for 3 days after virus injection, 3 weeks): 10%
Cumulative mortality ([6]; immersion 10 ppm, 1.5 hour for 3 days after virus injection, 3 weeks): 8%
